Results: ChEMBL document CHEMBL1138641, “2-(4-Methoxyphenoxy)-5-nitro-N-(4-sulfamoylphenyl)benzamide activates Kir6.2/SUR1 K(ATP) channels” (Bioorg Med Chem Lett, 2004)

Key:
Beta-TC6 [1] = test: Concentration required for inhibition of glucose stimulated insulin release from beta TC6 cells; format: functional, cell-based, Mus musculus
[2] = inhibitory concentration required for repolarization of beta cell membrane potential in presence of 10 mM glucose; format: functional, Homo sapiens
Beta-TC6 [3] = test: Percent efficacy for inhibition of glucose stimulated insulin release from beta TC6 cells; format: functional, Mus musculus
HEK293 = test: Potency by repolarisation of tolbutamide-depolarised membrane potential in HEK 293 cells; details: Homo sapiens
[4] = Mus musculus, Beta-TC6, read-out: IC50

Row | Structure (SMILES) | IC50 (Beta-TC6 [1]; [4]) [µM] | IC50 ([2]; Homo sapiens, read-out: IC50) [µM] | Efficacy (Beta-TC6 [3]) [%] | IC50 (HEK293) [µM] | IC50 [2] | IC50 (Beta-TC6 [1]; beta-tc6)
1 | COc1ccc(Oc2ccc([N+](=O)[O-])cc2C(=O)Nc2ccc(F)cc2)cc1 | 5.67 | 7.2 | 52 | – | – | –
2 | CCN(C(=O)c1cc([N+](=O)[O-])ccc1Oc1ccc(OC)cc1)c1ccc(Cl)cc1 | 10.4 | 8.3 | 56 | – | – | –
3 | COc1ccc(Oc2ccc([N+](=O)[O-])cc2C(=O)Nc2ccc(S(N)(=O)=O)cc2)cc1 | 0.82 | 1.8 | 79 | 1.3 | – | –
4 | COc1ccc(NC(=O)c2cc(C#N)ccc2Oc2ccc(OC)cc2)cc1 | 48.5 | 2.5 | 17 | – | – | –
5 | CC(C)NC1=NS(=O)(=O)c2cc(Cl)ccc2N1 | 0.46 | 0.25 | 75 | 0.8 | – | –
6 | COc1ccc(Oc2ccc([N+](=O)[O-])cc2C(=O)N(C)c2ccc(Cl)cc2)cc1 | 25.7 | 10.1 | 33 | – | – | –
7 | COc1ccc(Oc2ccc([N+](=O)[O-])cc2C(=O)Nc2ccccc2S(N)(=O)=O)cc1 | 10.4 | – | 33 | – | No significant activity | –
8 | CC1=Nc2ccc(Cl)cc2S(=O)(=O)N1 [DIAZOXIDE] | 23 | 13.7 | 25 | 33 | – | –
9 | CC1(NC2=NS(=O)(=O)c3sc(Cl)cc3N2)CC1 [TIFENAZOXIDE] | 0.25 | 0.6 | 73 | – | – | –
10 | COc1ccc(Oc2ccc([N+](=O)[O-])cc2C(=O)Nc2cccc(S(N)(=O)=O)c2)cc1 | 20.5 | 9.9 | 31 | – | – | –
11 | COc1ccc(Oc2ccc([N+](=O)[O-])cc2C(=O)Nc2ccc(C(C)=O)cc2)cc1 | 1.12 | 8.1 | 75 | – | – | –
12 | COc1ccc(NC(=O)c2cc([N+](=O)[O-])ccc2Oc2ccc(OC)cc2)cc1 | 1.6 | 3.4 | 73 | – | – | –
13 | COc1ccc(Nc2ccc([N+](=O)[O-])cc2C(=O)Nc2ccc(S(N)(=O)=O)cc2)cc1 | 26.6 | – | 1 | – | No significant activity | –
14 | COc1ccc(NC(=O)c2cc(N)ccc2Oc2ccc(OC)cc2)cc1 | – | – | – | – | No significant activity | No significant activity
15 | COc1ccc(NC(=O)c2ccccc2Oc2ccccc2)cc1 | – | – | – | – | No significant activity | No significant activity
